Data from US20210311024A1, “NON-CLINICAL TEST METHOD CHARACTERIZED BY QUANTITATIVE EVALUATION OF EXPERIMENTAL ANIMAL SPECIMEN” (Konica Minolta, Inc., priority 2016, published 2021).

Columns and labels:
Type in all cases: in vivo
[1] = test system: PDX mice each transplanted with the breast cancer tissue of one of six patients (A to F); test: Lapatinib drug efficacy (tumor volume) in breast cancer PDX mice, Example 1; details: 100 mg/kg i.v. twice a day, 42 times; for Tumor size (size at the start of administration is taken as 100%): 21 days after first administration
Protocol: To each of these PDX mice, 100 mg/kg of lapatinib (Trade name: Tykerb) was administered intravenously twice a day, for a total of 42 times. The measurement of the tumor volume was carried out before the administration and 21 days after the first administration. At the same time, a tissue section was collected from each mouse using a frozen needle, at each time point. The collected tissue sections were subjected to a formalin fixation treatment and a paraffin-embedding treatment, and then sliced to prepare sample slides, according to conventional methods. The thus prepared sample slides were used for the quantification of the expression level of HER2 as the target protein.

[2] = test system: PDX mice each transplanted with the breast cancer tissue of one of six patients (A to F); test: Lapatinib drug efficacy in PDX mice selected for low CD140a score, Example 4; details: three mice per group selected for low CD140a score; 100 mg/kg i.v. twice a day, 42 times; 21 days after first administration
Protocol: PDX mice each transplanted with the breast cancer tissue (volume: about 200 mm^3) of one of six patients (A to F), which were the same as those used in Example 1, were purchased, five mice for each of the patients. These PDX mice were reared, and the size of the tumor in each mouse was measured every 3 or 4 days. When the tumor volume reached 500 mm^3, tumor tissue was collected from each mouse using a scalpel.
The observation and image capture of the immunostained images and the stained images for morphological observation were carried out in the same manner as in Example 1, to measure the PID score or the DAB score of CD140a. […]
To each of the thus selected three PDX mice, in each group, 100 mg/kg of lapatinib (trade name: Tykerb) was administered intravenously twice a day, for a total of 42 times, in the same manner as in Example 1, and the tumor volume was measured before the first administration, and 21 days after the first administration. […] The collected tissue sections were used for the quantification of the expression level of HER2 protein as the target protein, in the same manner as in Example 1.

[3] = test system: hemato-lymphoid humanized model mice transplanted with tumor tissue of lung cancer patients; test: Nivolumab drug efficacy in hemato-lymphoid humanized model mice transplanted with lung cancer tissue, Example 5; details: 100 mg/kg i.v. twice a day, 42 times; 21 days after first administration
Excerpt: Hemato-lymphoid humanized mice, produced by transplanting human hematopoietic stem cells into mice with acquired immune deficiency, were transplanted with tumor tissue, to prepare hemato-lymphoid humanized model mice, which are one type of patient-derived tumor-transplanted mice. Tumor tissues collected from six lung cancer patients were purchased from SofiaBio, and the thus produced hemato-lymphoid humanized mice were each subcutaneously transplanted with the tumor tissue, having a size of 2 mm square, of one of the patients (five mice transplanted with the tumor tissue of one patient were produced for each of the patients). To each of the model mice whose tumor tissue had grown to the size of about 300 mm^3 one month after the transplantation, 100 mg/kg of an anti-human PD-1 monoclonal antibody preparation, nivolumab (trade name: Opdivo) was administered intravenously twice a day, for a total of 42 times. In the same manner as in Example 1, the tumor volume was measured before the first administration and 21 days after the first administration. At the same time, a tissue section was collected from each of the mice, and sample slides were prepared in the same manner as in Example 1. […]

Compound | Tumor size (size at the start of administration is taken as 100%) ([1]; Sample A (PID score 10, DAB score — before administration)) | Tumor size (size at the start of administration is taken as 100%) ([1]; Sample B (PID score 30, DAB score 1+ before administration)) | Tumor size (size at the start of administration is taken as 100%) ([1]; Sample C (PID score 100, DAB score 2+ before administration)) | Tumor size (size at the start of administration is taken as 100%) ([1]; Sample D (PID score 200, DAB score 3+ before administration)) | Tumor size (size at the start of administration is taken as 100%) ([1]; Sample E (PID score 400, DAB score 3+ before administration)) | Tumor size (size at the start of administration is taken as 100%) ([1]; Sample F (PID score 800, DAB score 3+ before administration)) | drug efficacy (effect of reducing the tumor size) in relation to PID score ([1]; among the PDX mice having the same DAB score of 3+) | drug efficacy (effect of reducing the tumor size) in relation to PID score of HER2 protein [2] | drug efficacy (effect of reducing the tumor size) in relation to PID score of PD-L1 protein [3]
CS(=O)(=O)CCNCc1ccc(-c2ccc3ncnc(Nc4ccc(OCc5cccc(F)c5)c(Cl)c4)c3c2)o1 [Lapatinib, lapatinib] | 180% | 120% | 80% | 70% | 60% | 10% | increased drug efficacy (effect of reducing the tumor size) of lapatinib tend to be observed in a PDX mouse having a higher PID score | increased drug efficacy (effect of reducing the tumor size) of lapatinib tend to be observed in a PDX mouse having a higher PID score of HER2 protein | 
nivolumab |  |  |  |  |  |  |  |  | increased drug efficacy (effect of reducing the tumor size) of nivolumab tend to be observed in a PDX mouse having a higher PID score of PD-L1 protein
